Legend:
[1] = Oral bioavailability in rats (data on file); type: in vivo; settings: administered orally to rats
[2] = Assessment of oral pharmacokinetics / bioavailability in jugular vein cannulated Wistar rats; type: in vivo; settings: 10 mg/kg, Wistar rats (n=5), Mean
Protocol: Bioavailability of 1-(2-thien-2′-yl-2-oxo-ethyl)-3-(methanesulfonyl hydrazine carbonyl) pyridinium compound was checked using formulations as given in Table 2.
The assessment of oral pharmacokinetics was carried out. […] The blood samples were withdrawn at pre-determined time points; pre-dose (0.0 hr), 0.25, 0.5, 1, 2, 4, 6, 8, 12 and 24 hrs post dose. Plasma obtained at each time point was subjected to quantification of 1-(2-thien-2′-yl-2-oxo-ethyl)-3-(methanesulfonyl hydrazine carbonyl) pyridinium compound. LC-MS/MS method was used for the quantification of 1-(2-thien-2′-yl-2-oxo-ethyl)-3-(methanesulfonyl hydrazine carbonyl) pyridinium compound using an internal standard. The plasma samples were analyzed using solid phase extraction techniques in the calibration range of 0.500 ng/mL to 1000.000 ng/mL.
Data were presented with Mean±SD (standard deviation) and compared with 1-(2-thien-2′-yl-2-oxo-ethyl)-3-(methanesulfonyl hydrazine carbonyl) pyridinium compound PK data obtained after oral administration of solution of 1-(2-thien-2′-yl-2-oxo-ethyl)-3-(methanesulfonyl hydrazine carbonyl) pyridinium chloride in water under similar conditions.

[3] = phase I clinical studies, humans; cited from earlier work
[4] = clinical studies, administered orally; cited from earlier work
[5] = tested on: animal models of Type II diabetes; settings: cited from earlier work

1-(2-thien-2′-yl-2-oxo-ethyl)-3-(methanesulfonyl hydrazine carbonyl) pyridinium bromide
bioavailability [1]: very low

1-(2-thien-2′-yl-2-oxo-ethyl)-3-(methanesulfonyl hydrazine carbonyl) pyridinium chloride
AUClast [2]: 222.86 ng·h/mL
Cmax [2]: 85.764 ng/mL
oral bioavailability [3]: very low
safety and tolerability [4]: safe and well tolerated
effect on cardiomyopathy and nephropathy [5]: improve cardiomyopathy and nephropathy

— patent publication US10772879B2, “Pharmaceutical formulations” (TORRENT PHARMACEUTICALS LIMITED, priority 2015, dated 2020)
